Source: ChEMBL document CHEMBL4257571, “Discovery of 5-(2-chloro-4'-(1H-imidazol-1-yl)-[1,1'-biphenyl]-4-yl)-1H-tetrazole as potent and orally efficacious S-nitrosoglutathione reductase (GSNOR) inhibitors for the potential treatment of COPD” (Bioorg Med Chem Lett, 2018)
≈ marks a conversion by molar mass, not a printed value.

Columns and labels:
[1] = target: Alcohol dehydrogenase class-3 (Homo sapiens, UniProt P11766); test: Inhibition of human GSNOR assessed as reduction in NADH consumption after 3 mins by spectrophotometric analysis
[2] = target: Alcohol dehydrogenase class-3 (Rattus norvegicus, UniProt P12711); test: Inhibition of rat GSNOR assessed as reduction in NADH consumption after 3 mins by spectrophotometric analysis
[3] = Metabolic stability of mouse liver microsomes assessed as parent compound remaining at 0.1 uM after 60 mins in presence of NADPH by LC/MS/MS analysis; type: ADME, microsome; conditions: read-out: Stability
CYP2D6 = CYP2D6 (Homo sapiens, UniProt P10635); test: Inhibition of CYP2D6 in human liver microsomes at 10 uM after 20 mins in presence of NADPH by LC/MS/MS analysis relative to control; type: ADME; conditions: liver microsomes
CYP3A4 = CYP3A4 (Homo sapiens, UniProt P08684); test: Inhibition of CYP3A4 in human liver microsomes at 10 uM after 20 mins in presence of NADPH by LC/MS/MS analysis relative to control; type: ADME; conditions: liver microsomes
CYP2C9 = CYP2C9 (Homo sapiens, UniProt P11712); test: Inhibition of CYP2C9 in human liver microsomes at 10 uM after 20 mins in presence of NADPH by LC/MS/MS analysis relative to control; type: ADME
CYP2C19 = CYP2C19 (Homo sapiens, UniProt P33261); test: Inhibition of CYP2C19 in human liver microsomes at 10 uM after 40 mins in presence of NADPH by LC/MS/MS analysis relative to control; type: ADME
[4] = Volume of distribution in C57/BL6 mouse at 3 mg/kg, iv; type: ADME, organism-based; conditions: in vivo, read-out: Vz
[5] = Half life in C57/BL6 mouse at 3 mg/kg, iv; type: ADME, organism-based; conditions: in vivo
[6] = Cmax in C57/BL6 mouse at 30 mg/kg, po; type: ADME, organism-based; set-up: dose 30 mg/kg, route oral; conditions: in vivo
[7] = Tmax in C57/BL6 mouse at 30 mg/kg, po; type: ADME, organism-based; conditions: in vivo
[8] = Half life in C57/BL6 mouse at 30 mg/kg, po; type: ADME, organism-based; conditions: in vivo
[9] = Oral bioavailability in C57/BL6 mouse at 30 mg/kg; type: ADME, organism-based; conditions: in vivo
[10] = Ratio of drug uptake in lung to plasma of C57/BL6 mouse at 3 mg/kg, iv or 30 mg/kg, po; type: ADME, organism-based
[11] = Protein binding in mouse plasma at 10 uM by LC/MS/MS based equilibrium dialysis analysis; type: ADME, cell-free; conditions: read-out: PPB (converted)
[12] = Effective permeability of the compound by PAMPA assay; type: ADME; conditions: read-out: Peff
Rattus norvegicus = species: Rattus norvegicus; test: Displacement of [35S]dATPalphaS to rat P2Y receptor at 10 uM after 60 mins by scintillation counting analysis relative to control
[13] = target: Leukotriene B4 receptor 1 (Homo sapiens) (UniProt Q15722); test: Displacement of [3H]LTB4 to recombinant human LTB4 receptor at 10 uM after 60 mins by scintillation counting analysis relative to control
Homo sapiens [14] = species: Homo sapiens; test: Inhibition of chloride channel (unknown origin) at 10 uM relative to control
Bos taurus = species: Bos taurus; test: Inhibition of bovine PDE6 at 10 uM using [3H]cGMP as substrate after 60 mins by scintillation counting analysis relative to control
Homo sapiens [15] = species: Homo sapiens; test: Inhibition of BZD receptor (unknown origin) at 10 uM relative to control
[16] = Inhibition of MT3 receptor (unknown origin) at 10 uM relative to control
[17] = Aqueous solubility of compound in DMSO; type: physicochemical
[18] = Aqueous solubility of compound in fed state simulated intestinal fluid at pH 5.2; type: physicochemical
[19] = Aqueous solubility of compound in acetate buffer at pH 4.5; type: physicochemical
[20] = Aqueous solubility of compound in phosphate buffer at pH 6.8; type: physicochemical
[21] = Aqueous solubility of compound in 0.1 N HCl; type: physicochemical
Mus musculus [22] = test: (§1) Anti-inflammatory activity in po dosed C57BL/6 mouse model of cigarette smoke induced chronic obstructive pulmonary disease assessed as reduction in cellular infiltration in bronchoalveolar lavage administered once daily for 7 days 1 hr prior to first smoke exposure and measured on day 8 after last smoke exposure post single drug treatment by hemocytometry; type: functional, organism-based
Mus musculus [23] = test: as §1, with “in” for “in po dosed”, “total leukocyte count” for “reduction in cellular infiltration”, “lavage at 3 mg/kg, po” for “lavage”; type: functional
Mus musculus [24] = test: as §1, with “in” for “in po dosed”, “total leukocyte count” for “reduction in cellular infiltration”, “lavage at 10 mg/kg, po” for “lavage”; type: functional
Mus musculus [25] = test: as §1, with “in” for “in po dosed”, “total leukocyte count” for “reduction in cellular infiltration”, “lavage at 30 mg/kg, po” for “lavage”; type: functional
Mus musculus [26] = test: as §1, with “in” for “in po dosed”, “total leukocyte count” for “reduction in cellular infiltration”, “lavage at 100 mg/kg, po” for “lavage”; type: functional
Mus musculus [27] = test: as §1, with “in” for “in po dosed”, “neutrophil count” for “reduction in cellular infiltration”, “lavage at 3 mg/kg, po” for “lavage”, “Leishman's staining based assay” for “hemocytometry”; type: functional
Mus musculus [28] = test: as §1, with “in” for “in po dosed”, “neutrophil count” for “reduction in cellular infiltration”, “lavage at 10 mg/kg, po” for “lavage”, “Leishman's staining based assay” for “hemocytometry”; type: functional
Mus musculus [29] = test: as §1, with “in” for “in po dosed”, “neutrophil count” for “reduction in cellular infiltration”, “lavage at 30 mg/kg, po” for “lavage”, “Leishman's staining based assay” for “hemocytometry”; type: functional
Mus musculus [30] = test: as §1, with “in” for “in po dosed”, “neutrophil count” for “reduction in cellular infiltration”, “lavage at 100 mg/kg, po” for “lavage”, “Leishman's staining based assay” for “hemocytometry”; type: functional
Mus musculus [31] = test: as §1, with “in” for “in po dosed”, “macrophages count” for “reduction in cellular infiltration”, “lavage at 10 mg/kg, po” for “lavage”, “Leishman's staining based assay” for “hemocytometry”; type: functional
Mus musculus [32] = test: as §1, with “in” for “in po dosed”, “macrophages count” for “reduction in cellular infiltration”, “lavage at 100 mg/kg, po” for “lavage”, “Leishman's staining based assay” for “hemocytometry”; type: functional
[33] = target: T1, Carbonyl reductase [NADPH] 1 (Homo sapiens) (UniProt P16152); test: Inhibition of CBR1 (unknown origin) assessed as reduction in NADP+ production at 10 uM by spectrophotometric analysis relative to control
T1 sequence (whole entry): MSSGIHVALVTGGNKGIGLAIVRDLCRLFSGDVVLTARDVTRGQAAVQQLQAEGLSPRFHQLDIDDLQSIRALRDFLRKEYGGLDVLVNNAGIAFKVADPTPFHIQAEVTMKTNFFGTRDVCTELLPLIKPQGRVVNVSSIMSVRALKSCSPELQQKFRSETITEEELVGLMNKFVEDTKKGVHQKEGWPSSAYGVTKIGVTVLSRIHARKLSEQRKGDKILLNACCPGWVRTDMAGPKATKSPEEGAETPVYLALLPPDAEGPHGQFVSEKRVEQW

Chain of CYP2D6 (P10635 whole entry): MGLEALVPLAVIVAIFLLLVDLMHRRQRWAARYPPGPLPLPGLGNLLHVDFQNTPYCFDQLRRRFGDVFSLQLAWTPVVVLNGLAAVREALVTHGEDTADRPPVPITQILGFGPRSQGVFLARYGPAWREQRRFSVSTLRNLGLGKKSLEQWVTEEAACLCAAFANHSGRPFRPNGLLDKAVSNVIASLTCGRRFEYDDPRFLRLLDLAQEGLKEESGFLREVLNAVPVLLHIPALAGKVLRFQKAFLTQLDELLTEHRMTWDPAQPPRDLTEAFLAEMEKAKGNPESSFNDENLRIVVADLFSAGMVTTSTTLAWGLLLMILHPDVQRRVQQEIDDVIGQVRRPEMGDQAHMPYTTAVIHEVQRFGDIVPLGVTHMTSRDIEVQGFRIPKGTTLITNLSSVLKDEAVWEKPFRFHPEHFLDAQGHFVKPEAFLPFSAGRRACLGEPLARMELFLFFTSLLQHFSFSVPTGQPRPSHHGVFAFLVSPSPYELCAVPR
Chain of Alcohol dehydrogenase class-3 (Homo sapiens, UniProt P11766) (P11766 whole entry): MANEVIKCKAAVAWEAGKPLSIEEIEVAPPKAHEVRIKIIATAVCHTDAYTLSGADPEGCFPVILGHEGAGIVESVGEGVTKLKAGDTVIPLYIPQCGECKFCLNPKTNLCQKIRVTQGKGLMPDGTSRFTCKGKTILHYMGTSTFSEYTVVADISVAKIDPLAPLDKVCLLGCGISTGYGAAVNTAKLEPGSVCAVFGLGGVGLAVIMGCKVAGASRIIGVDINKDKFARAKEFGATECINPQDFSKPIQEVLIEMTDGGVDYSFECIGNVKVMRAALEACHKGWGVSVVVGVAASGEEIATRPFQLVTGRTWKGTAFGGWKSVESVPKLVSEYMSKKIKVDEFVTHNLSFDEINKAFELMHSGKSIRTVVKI
Chain of CYP2C9 (P11712 whole entry): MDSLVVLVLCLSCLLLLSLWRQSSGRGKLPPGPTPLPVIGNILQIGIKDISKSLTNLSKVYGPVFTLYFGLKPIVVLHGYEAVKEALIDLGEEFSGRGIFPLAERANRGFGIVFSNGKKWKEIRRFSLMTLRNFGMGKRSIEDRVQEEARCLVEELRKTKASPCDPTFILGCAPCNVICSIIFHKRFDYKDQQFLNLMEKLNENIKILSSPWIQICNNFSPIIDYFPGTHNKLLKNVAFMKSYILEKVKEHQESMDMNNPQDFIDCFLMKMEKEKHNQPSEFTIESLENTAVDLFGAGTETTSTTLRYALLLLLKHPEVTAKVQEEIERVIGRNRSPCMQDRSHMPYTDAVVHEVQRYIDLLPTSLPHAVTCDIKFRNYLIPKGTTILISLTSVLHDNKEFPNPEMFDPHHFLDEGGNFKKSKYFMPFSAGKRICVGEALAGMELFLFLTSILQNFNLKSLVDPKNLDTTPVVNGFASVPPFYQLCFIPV
Chain of Alcohol dehydrogenase class-3 (Rattus norvegicus, UniProt P12711) (P12711 whole entry): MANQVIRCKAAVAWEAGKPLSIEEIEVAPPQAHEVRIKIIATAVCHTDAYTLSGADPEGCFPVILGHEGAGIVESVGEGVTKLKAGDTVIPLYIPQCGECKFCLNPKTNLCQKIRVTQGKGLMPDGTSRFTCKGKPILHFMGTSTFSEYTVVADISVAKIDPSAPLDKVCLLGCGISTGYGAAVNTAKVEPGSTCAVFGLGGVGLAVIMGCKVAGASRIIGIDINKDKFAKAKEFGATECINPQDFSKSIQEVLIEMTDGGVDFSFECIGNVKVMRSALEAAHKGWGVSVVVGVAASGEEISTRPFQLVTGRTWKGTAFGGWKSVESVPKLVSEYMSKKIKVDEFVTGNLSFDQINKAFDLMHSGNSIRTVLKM
Chain of Leukotriene B4 receptor 1 (Homo sapiens) (Q15722 whole entry): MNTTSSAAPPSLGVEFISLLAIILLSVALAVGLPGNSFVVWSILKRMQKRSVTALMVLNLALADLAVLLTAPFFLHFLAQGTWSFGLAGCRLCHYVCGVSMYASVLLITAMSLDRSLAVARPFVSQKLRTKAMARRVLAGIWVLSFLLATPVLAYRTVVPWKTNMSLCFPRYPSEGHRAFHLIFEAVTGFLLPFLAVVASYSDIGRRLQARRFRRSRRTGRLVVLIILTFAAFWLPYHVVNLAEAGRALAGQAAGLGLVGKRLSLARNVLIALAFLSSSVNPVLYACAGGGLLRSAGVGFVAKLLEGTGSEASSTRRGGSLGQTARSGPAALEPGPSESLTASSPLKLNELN
Chain of CYP3A4 (P08684 whole entry): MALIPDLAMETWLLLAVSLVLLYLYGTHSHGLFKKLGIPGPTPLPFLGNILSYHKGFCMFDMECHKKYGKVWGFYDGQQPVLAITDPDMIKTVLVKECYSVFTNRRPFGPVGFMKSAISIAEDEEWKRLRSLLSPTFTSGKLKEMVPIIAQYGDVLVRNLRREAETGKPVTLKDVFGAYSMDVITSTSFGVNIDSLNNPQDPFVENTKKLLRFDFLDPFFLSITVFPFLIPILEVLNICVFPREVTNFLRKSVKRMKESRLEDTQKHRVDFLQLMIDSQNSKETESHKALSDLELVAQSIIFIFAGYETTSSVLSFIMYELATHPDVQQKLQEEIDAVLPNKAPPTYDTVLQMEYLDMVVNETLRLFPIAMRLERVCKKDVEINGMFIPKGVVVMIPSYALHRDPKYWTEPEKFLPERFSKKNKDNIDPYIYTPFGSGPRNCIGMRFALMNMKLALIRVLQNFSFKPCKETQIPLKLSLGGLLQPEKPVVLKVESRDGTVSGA
Chain of CYP2C19 (P33261 whole entry): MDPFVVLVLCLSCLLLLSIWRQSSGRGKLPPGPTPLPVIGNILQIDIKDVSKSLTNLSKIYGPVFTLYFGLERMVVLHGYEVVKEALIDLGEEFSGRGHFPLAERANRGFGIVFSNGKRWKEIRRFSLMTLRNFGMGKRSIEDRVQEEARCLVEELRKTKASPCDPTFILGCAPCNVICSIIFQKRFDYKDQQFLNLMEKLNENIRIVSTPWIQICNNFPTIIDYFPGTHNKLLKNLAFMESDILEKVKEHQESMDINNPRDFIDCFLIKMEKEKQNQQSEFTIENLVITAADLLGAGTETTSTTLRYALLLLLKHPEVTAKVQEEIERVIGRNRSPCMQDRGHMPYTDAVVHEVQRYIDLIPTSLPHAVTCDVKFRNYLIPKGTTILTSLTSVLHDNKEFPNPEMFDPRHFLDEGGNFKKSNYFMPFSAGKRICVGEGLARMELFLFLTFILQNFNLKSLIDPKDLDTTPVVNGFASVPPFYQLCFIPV

IC50 [1]: 9.2 nM | IC50 [2]: 9.1 nM | remaining at 1 h, 0.1 µM [3]: 43% | inhibition at 20 min, 10 µM (CYP2D6): 52% | inhibition at 20 min, 10 µM (CYP3A4): 55% | inhibition at 20 min, 10 µM (CYP2C9): 86% | inhibition at 40 min, 10 µM (CYP2C19): 86% | Vd [4]: 0.41 L/kg | half-life [5]: 3.4 h | Cmax [6]: 8960 ng/mL | Tmax [7]: 2 h | half-life [8]: 6 h | bioavailability [9]: 21% | Kp [10]: 0.38 | fraction unbound at 10 µM [11]: 0.015 | Papp [12]: 0.12 ×10⁻⁶ cm/s | inhibition (Rattus norvegicus): 59% | inhibition [13]: 64% | inhibition (Homo sapiens [14]): 50% | inhibition (Bos taurus): 60% | inhibition (Homo sapiens [15]): 50% | inhibition [16]: 100% | solubility [17]: 20000 µg/mL (≈ 62000 µM) | solubility [18]: 0.6 µg/mL (≈ 1.86 µM) | solubility [19]: 1.1 µg/mL (≈ 3.41 µM) | solubility [20]: 7 µg/mL (≈ 21.7 µM) | solubility [21]: 20 µg/mL (≈ 62 µM) | inhibition [33]: 24%
Structure (SMILES): Clc1cc(-c2nnn[nH]2)ccc1-c1ccc(-n2ccnc2)cc1
Activity (Mus musculus [22]): Dose-dependent effect | Activity (Mus musculus [23]): 32% | Activity (Mus musculus [24]): 41% | Activity (Mus musculus [25]): 49% | Activity (Mus musculus [26]): 53% | Activity (Mus musculus [27]): 19% | Activity (Mus musculus [28]): 25% | Activity (Mus musculus [29]): 37% | Activity (Mus musculus [30]): 47% | Activity (Mus musculus [31]): 59% | Activity (Mus musculus [32]): 61%
